In publication PMC9555310, “Novel inhibitors and activity-based probes targeting serine proteases” (Frontiers in Chemistry, 2022):

Key:
[1] = molecular target: T1, chymotrypsin (Bos taurus, UniProt P00766); assay: Off-target study, residual activity after 2 min pre-incubation: chymotrypsin; assay type: biochemical, bovine; conditions: 2 min incubation, PBS pH 7.4, 37°C; for off-target inhibition of chymotrypsin: residual activity vs DMF control, NAP830 at concentrations up to 50 μM
T1 construct: purchased Sigma-Aldrich (supplement); Calbiochem; host or cells: bovine pancreas
Protocol: (§1) FIGURE 5 Results of “off-target“ studies. NAP849 (A), NAP800 (B) and NAP830 (C) were tested against trypsin, chymotrypsin, and NE. Samples (approx. 0.01 μg) of each protease were incubated with the indicated concentrations of test compound for 2 min, in PBS, pH 7.4, at 37°C. (D) NAP858, NAP962 and NAP849 were tested against cathepsin B at the indicated concentrations in 0.1 M MES, pH 6.1, containing 1 mM EDTA, for 2 min, at 37°C. Aliquots (approx. 10 μL) of each incubation sample were then added to a fresh sample (990 μL) of PBS for the serine proteases and MES for cathepsin B, containing the appropriate substrate for each protease, to measure their residual activity. Controls incubations were performed in the absence of test compound, but in the presence of an appropriate volume of DMF vehicle used to prepare stock solutions of each inhibitor under study.
(§2) Two elements were investigated regarding possible “off-target” effects–determining the extent of cross-reactivity of each of the new putative ABPs between the various serine protease family members and assessing their collateral inhibitory action against another mechanistic class–the cysteine proteases, using cathepsin B (CTSB) as an exemplar.
(§3) For assays requiring a pre-incubation step enzyme and inhibitor in assay buffer were incubated together, at 37 °C, for 2 min, with gentle agitation. The reaction mixture was then aliquoted (50 μL) in duplicate on a black 96-well microtitre plate followed by addition of substrate to make a final concentration of 50 μM in a total volume of 100 μL. The fluorescence production was then measured as described for the previous procedure.
(§4) Figure ST1. Results of “off-target” studies. NAP559 and NAP533 were tested against chymotrypsin, and NE. Samples (approx. 0.01 mg) of each protease were incubated with the indicated concentrations of test compound for 2 min, in PBS, pH 7.4, at 37 °C. Aliquots (approx. 10 µL) of each incubation sample were then added to a fresh sample (990 µL) of PBS containing the appropriate substrate for each protease, to measure their residual activity. Controls incubations were performed in the absence of test compound, but in the presence of an appropriate volume of DMF vehicle used to prepare stock solutions of each inhibitor under study.

[2] = molecular target: T2, neutrophil elastase (NE) (Homo sapiens, UniProt P08246); assay: Off-target study, residual activity after 2 min pre-incubation: NE; assay type: biochemical; conditions: 2 min incubation, PBS pH 7.4, 37°C; for off-target inhibition of neutrophil elastase: residual activity vs DMF control, NAP830 at concentrations up to 50 μM
T2 construct: purchased Calbiochem
T2 sequence (P08246 30-267): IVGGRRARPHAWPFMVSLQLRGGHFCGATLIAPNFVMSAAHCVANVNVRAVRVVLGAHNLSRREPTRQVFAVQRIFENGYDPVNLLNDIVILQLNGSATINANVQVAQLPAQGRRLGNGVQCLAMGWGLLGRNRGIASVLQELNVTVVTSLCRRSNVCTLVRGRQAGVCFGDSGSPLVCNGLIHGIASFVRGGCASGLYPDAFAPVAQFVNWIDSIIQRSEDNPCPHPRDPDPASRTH
Protocol: as §1, §2, §3, §4

[3] = molecular target: T3, cathepsin B (CTSB) (Homo sapiens, UniProt P07858); assay: Off-target study, residual activity after 2 min pre-incubation: cathepsin B; assay type: biochemical; conditions: 25 and 50 μM, 0.1 M MES pH 6.1, 1 mM EDTA, 37°C
T3 construct: purchased R and D Systems
Protocol: as §1, §2, §3
Assays with Cathepsin B required a pre-activation step of the protease prior to use in the fluorogenic enzyme assays. Cathepsin B was diluted to 10 μg/ml in activation buffer (0.1 M MES, pH 6.1, containing 1 mM EDTA and 2 mM DTT) and left to stand at room temperature for 15 minutes. Activated Cathepsin B was then diluted (1:50 to give 10 ng/50 μl) with assay buffer (activation buffer minus the DTT) prior to use as described previously.

In the case of `N=C(N)NCCCN(CC(=O)N1CCC[C@H]1C(=O)N(CC(N)=O)Cc1ccccc1)C(=O)ON1C(=O)CCC1=O` [NAP559, Succinimidoyl-CO-NArg-D-Pro-NPhe-NH2], the inhibition of chymotrypsin ([1]; highest concentration (50 μM)) is reported as < 5 % of control and the “inhibition of NE” value ([2]; highest concentration (50 μM)) is reported as < 5 % of control.

For `NCCCCN(CC(=O)NCC(=O)NCC(=O)NCCCOCCOCCOCCCNC(=O)CCCCC1SCC2NC(=O)NC21)C(=O)ON1C(=O)CCC1=O` (stereo not drawn) [NAP830, Succinimidoyl-CO-NLys-Gly-Gly-PEG-Biotin], the “off-target inhibition of chymotrypsin” value [1] was “no “off-target” effects”, the “off-target inhibition of neutrophil elastase” value [2] was “no “off-target” effects” and the “inhibitory activity against CTSB” value [3] was “none of the three carbamates tested exhibited any inhibitory activity against CTSB”.

`CC(C)N(CC(=O)NCC(=O)NCC(=O)NCCCOCCOCCOCCCNC(=O)CCCCC1SCC2NC(=O)NC21)C(=O)ON1C(=O)CCC1=O` (stereo not drawn) [NAP800, Succinimidoyl-CO-NVal-Gly-Gly-PEG-Biotin] was tested, and the “off-target inhibition of chymotrypsin” value [1] was “no “off-target” or collateral inhibition”.

In the case of `O=C(CCCCC1SCC2NC(=O)NC21)NCCCOCCOCCOCCCNC(=O)CNC(=O)CNC(=O)CN(Cc1ccccc1)C(=O)ON1C(=O)CCC1=O` (stereo not drawn) [NAP849, Succinimidoyl-CO-NPhe-Gly-Gly-PEG-Biotin], the “off-target inhibition of neutrophil elastase” value [2] is reported as “complete absence of inhibition”.

For `CC(C)N(CC(=O)NCCCOCCOCCOCCCNC(=O)CCCCC1SCC2NC(=O)NC21)C(=O)CN(Cc1ccccc1)C(=O)CN(CCCCN)C(=O)ON1C(=O)CCC1=O` (centres unmarked) [NAP962, Succinimidoyl-CO-NLys-NPhe-NVal-PEG-Biotin], the “inhibitory activity against CTSB” value [3] was “none of the three carbamates tested exhibited any inhibitory activity against CTSB”.
